From EP0424901A1, “Dihydropyridine derivatives and pharmaceutical compositions” (THE GREEN CROSS CORPORATION, priority 1989, dated 1991)
Counter-ions that a name gives are not always drawn. Like-named read-outs stand apart in the source and are kept apart here.

Test system: male Wistar rats
Assay: Blood pressure in anesthetized rats after intravenous bolus administration
Type: in vivo
Conditions: tail vein bolus; for ED30: Rattus norvegicus, iv; for DBP % change: diastolic blood pressure relative to that before administration (=100%); for DBP % change / SBP % change: mean ± SE, n=4; for SBP % change: systolic blood pressure relative to that before administration (=100%)
Method: The subject rats anesthetized with pentobarbital-Na (50 mg/kg, i.p.) were fixed at the dorsal position, and the blood pressure was successively recorded on a polygraph via polyethylene catheter inserted in left common carotid artery and piezoelectric transducer. The drug was bolus- administered at a dose of 1 ml/kg through a wing needle dwelled in tail vein.
As the subject animal, male Wistar rats (about 300 g body weight, 4 rats per group) were used.
The test drug was prepared by dissolving 10 mg thereof in 0.3 ml of ethanol and 0.1 ml of Tween 80 and diluting with saline.

[1] = estimated dose necessary for 30% reduction of diastolic blood pressure, read-out: DBP ED30
[2] = estimated dose necessary for 30% reduction of systolic blood pressure, read-out: SBP ED30

`COC(=O)C1=C(C)NC(C)=C(C(=O)OCCc2ccc(N3CCN(C(c4ccccc4)c4ccccc4)CC3)cc2)C1c1cccc([N+](=O)[O-])c1` (racemic) [compound 3, reference compound] showed an ED30 [1] of 0.046 mg/kg, an ED30 [2] of 0.63 mg/kg and a DBP % change (dose 30 µg/kg) of 75±5%. For the same molecule, the DBP % change (dose 100 µg/kg) was 61±2%, the DBP % change (dose 300 µg/kg) was 53±3% and the SBP % change (dose 30 µg/kg) was 79±1%. It also gave an SBP % change (dose 100 µg/kg) of 76±4% and an SBP % change (dose 300 µg/kg) of 72±3%.

`COC(=O)C1=C(C)NC(C)=C(C(=O)OCCc2ccc(N3CCN(C(c4ccccc4)c4ccccc4)CC3)cc2)[C@H]1c1cccc([N+](=O)[O-])c1` [(S)-(+)-compound 3, (S)-(+)-4-(4-benzhydrylpiperadino)phenetyl methyl 1,4-dihydro-2,6-dimethyl-4-(3-nitrophenyl)-3,5-pyridinedicarboxylate hydrochloride] gave an ED30 [1] of 0.037 mg/kg, an ED30 [2] of 0.16 mg/kg and a DBP % change (dose 10 µg/kg) of 89±1%. For the same molecule, the DBP % change (dose 30 µg/kg) was 74±2%, the DBP % change (dose 100 µg/kg) was 55±4% and the SBP % change (dose 10 µg/kg) was 86±3%. For the same molecule, the SBP % change (dose 30 µg/kg) was 86±3% and the SBP % change (dose 100 µg/kg) was 71±5%.

Work on `COC(=O)C1=C(C)NC(C)=C(C(=O)OCCc2ccc(N3CCN(C(c4ccccc4)c4ccccc4)CC3)cc2)[C@@H]1c1cccc([N+](=O)[O-])c1` [(R)-(-)-compound 3, (R)-(-)-4-(4-benzhydrylpiperadino)phenetyl methyl 1,4-dihydro-2,6-dimethyl-4-(3-nitrophenyl)-3,5-pyridinedicarboxylate hydrochloride] yielded a DBP % change (dose 100 µg/kg) of 94±1%, a DBP % change (dose 1000 µg/kg) of 91±2% and an SBP % change (dose 100 µg/kg) of 93±2%. The SBP % change (dose 1000 µg/kg) was 93±3%.
